Experimental data published in patent US20150233925A1, “Assays and Cell-Based Tests Using a Receptor Na/K-ATPase/Src Complex and Uses Thereof” (The University of Toledo, priority 2012, published 2015).
Entries after “also recorded” stand apart in the source; their conditions may differ.

What was measured:
[1] = target: T1, Na/K-ATPase/Src receptor complex (Sus scrofa, UniProt P05024); experiment: FRET based high throughput screen for agonists and antagonists; assay type: biochemical, pig; conditions: screen with ouabain plus compounds, followed by cell-based analyses
T1 construct: The α1 Na/K-ATPase was purified from pig kidney; tissue Upstate Biotechnology (Src only); host or cells: pig kidney (Na/K-ATPase)
From the text: Referring now to FIGS. 2A and 2B, there are shown schematic illustrations of a FRET based high throughput assay for agonist and antagonist. […] A pathway-based approach is useful to screen for agonists of Na/K-ATPase/Src receptor targets. Agonist can interact with Na/K-ATPase resulting Src phosphorylation. This active Src transfers the γ-phosphate of ATP to a single tyrosine residue in the synthetic peptide substrate. Then, a site specific protease recognizes and cleaves non-phosphorylated peptides. […] Cleavage disrupts FRET on the peptide, whereas uncleaved, phosphorylated peptides maintain FRET.
This assay is similar as the agonist screening. For example, in the presence of ouabain, antagonist can reduce ouabain induced peptide substrate phosphorylation.
(§1) In one example, the FRET-based in vitro high throughput assay utilizes the in vitro reconstitution of receptor Na/K-ATPase and Src, and a peptide Src substrate-based FRET assay. […] To reconstitute the receptor α1 Na/K-ATPase/Src complex, purified pig kidney Na/K-ATPase was mixed with purified recombinant Src. This receptor complex has an inhibited Src activity. The binding of agonists to the receptor complex releases the inhibited Src and result in an increase in Src activity, which is measured by a peptide-based FRET analysis (FIG. 2A, FIG. 2B). To screen the agonist of receptor Na/K-ATPase/Src complex, the reconstituted receptor is exposed to compounds, and then measured for Src activation using the peptide-based FRET assay.
The chemical library used for screening in the present study contained 100 structurally diverse, drug-like, naturally occurring organic compounds or their semisynthetic derivatives. Stock compounds were prepared at 10 mM in DMSO. The specific activities of Na/K-ATPase of various kidney preparations were in the range of 900-1,200 μmol/mg/h. The high throughput screen was conducted in a Corning 384-well low-volume assay plates at room temperature.
The first step was Kinase Reaction with the final reaction volume of 10 μl. The purified Src (4.5 U) was incubated with 2 μg of the purified Na/K-ATPase in phosphate-buffered saline (PBS) for 5 min. Afterward, the Na/K-ATPase/Src complex was exposed to compounds to screen for agonist or ouabain 10 μM plus compounds to screen antagonists for 10 min. Then, the Src kinase substrate Tyr 2 peptide or phosphor-peptide (control) was added. The reaction was initiated by addition of 2 mM ATP/Mg^2+, continued for 60 min.
The second step was Development Reaction. Each well was added 5 μl Development Solution, then mix the plate and incubate another 60 min. The assay was stopped by adding 5 μl stop reagent and then fluorescent signals were measured.

ERK in LLC-PK1 cells = experiment: Western blot of activated-ERK in LLC-PK1 cells; assay type: cell-based, pig; conditions: pretreated 30 min, ouabain 1 nM for 1 h
Description: LLC-PK1 cells were serum-starved overnight, washed and pretreated with Ferulic acid (A) for 30 min. Both control and compounds-pretreated cells were exposed to ouabain (1 nM) for 1 h. Cell lysates were collected, separated by SDS-PAGE and probed for activated-ERK and total-ERK. A representative western blot is shown. The quantitative data from three to four separate experiments were presented. (***, p<0.001 vs control; #, p<0.05 vs Oua).
The experiments were done as in FIG. 6D. The quantitative data from four separate experiments were presented. (***, p<0.001 vs control; ## #, p<0.001 vs Oua).
(§2) Cells were washed with PBS and solubilized in modified ice-cold radioimmune precipitation assay buffer, and subjected to Western blot analysis. Protein signals were detected using an ECL kit and quantified using ImageJ.

Src in LLC-PK1 cells = experiment: Cell-based Src activation assay, LLC-PK1 cells; parameters: species or system pig; conditions: 20 μM OA
Description: (§3) The second assay uses another pair of cell lines, LL-A416P-4 and LL-A420P-20. These cells were rat α1 A416P and A420P mutant-rescued PY-17 cells.
The pig kidney epithelia cells (LLC-PK1 cells) were obtained from ATCC and maintained in Dulbecco's modified Eagle's medium (DMEM) in the presence of 10% FBS, 100 units/ml penicillin, and 100 μg/ml streptomycin in a 5% CO2 humidified incubator. To eliminate the confounding effect of growth factors in the serum, cells were serum starved over night before experiments.
(§4) Referring now to FIG. 3A, cells were treated with indicated concentration of ouabain for 5 min, and total cell lysates were analyzed for pY418 and total Src. […] Values are mean±S.E. of at least three independent experiments. * p<0.05 compared with each control.
as §2

[2] = test system: Src in AAC-19 cells (rat α1-rescued PY-17 cells); experiment: Cell-based Src activation assay, control cell AAC-19
Description: (§5) To confirm that these agonists activate Src through the Na/K-ATPase, three complementary cell-based assays were established. One assay uses a LLC-PK1 derived al knockdown PY-17 cell, a control cell P11 (LLC-PK1transfected with empty vector), and another control cell AAC-19 (rat al-rescued PY-17 cells).
as §4, §2

[3] = test system: Src in LY-I279A-3 cells (I279A mutant Na/K-ATPase); experiment: Cell-based Src activation assay, LY-I279A-3 cells; conditions: ouabain 10 min
Description: (§6) The third assay uses other two cell lines (LY-I279A-3, LY-F286A-19), where the expressed I279A or F286A mutant Na/K-ATPase was defective in conformational transition (I279A and F286A mutants were defective in E1 to E2 and E2 to E1 conformational transition, respectively). […] Cell (LY-I279A-3 and LY-F286A-19) based Assay for agonist (ouabain): Cells were treated with indicated concentration of ouabain for 10 min, and total cell lysates were analyzed for pY418 and total Src. […] Values are mean±S.E. of at least three independent experiments. * p<0.05 compared with each control.
as §2

[4] = test system: Src in LY-F286A-19 cells (F286A mutant Na/K-ATPase); experiment: Cell-based Src activation assay, LY-F286A-19 cells; conditions: ouabain 10 min
Description: as §6, §2

[5] = test system: Src in LL-A416P-4 cells (rat α1 A416P mutant-rescued PY-17 cells); experiment: Cell-based Src activation assay, LL-A416P-4 cells; conditions: ouabain 10 min
Description: as §3
as §4, with “Cell (LL-A416P-4 and LL-A420P-20) based assay for agonist (ouabain): Cells were” for “Referring now to FIG. 3A, cells were”, “for 10” for “for 5”
as §2

[6] = test system: Src in P11 cells (LLC-PK1 transfected with empty vector); experiment: Cell-based Src activation assay, control cell P11; parameters: species or system pig
Description: as §5, §4, §2

[7] = test system: Src in PY-17 cells (LLC-PK1 derived α1 knockdown); experiment: Cell-based Src activation assay, α1 knockdown PY-17 cells; parameters: species or system pig; conditions: Na/K-ATPase knockdown
Description: as §5, §3, §4, §2

[8] = target: T1, Na/K-ATPase/Src receptor complex; experiment: Reconstituted Na/K-ATPase/Src receptor complex, Src pY418 by Western blot (kinase activity assay of Src); assay type: biochemical, pig; conditions: ouabain 1 μM, 100 μM vanade to inactivate ATPase activity
Description: as §1
Phosphorylation of Src pY 418, as an indicator of Src activation, was measured by Western blot. Ouabain was used at 1 μM and the assay was done in the presence of 100 μM vanade to inactivate ATPase activity. Values are mean±S.E. of at least three independent experiments. * p<0.05 compared with control. ** p<0.01 compared with control.
(§7) To assay for receptor antagonist, the reconstituted receptor was exposed to compounds in the presence and absence of an agonist (ouabain) and then assessed whether the compounds could antagonize ouabain-induced activation of Src. To verify that they are specific antagonists of receptor Na/K-ATPase/Src complex, their effects on ouabain-, EGF- and dopamine-induced signal transduction was measured in LLC-PK1 and PY-17 cells.
To determine whether the compound affect the Na/K-ATPase/Src receptor activity, the compounds was incubated with the purified Src (4.5 U) and 1 μg Na/K-ATPase for 15 min at 37° C. Afterward, 2 mM ATP/Mg^2+ was added. The reaction continued for 15 min at 37° C. and was stopped by addition of SDS sample buffer. Afterward, the Src pY418 was measured by anti-pY418 antibody to indicate Src activation.

[9] = test system: ouabain-induced signal transduction in cultured cells; experiment: Ouabain-induced signal transduction in cultured cells; assay type: cell-based
Description: as §7

DU145 tumor xenograft = experiment: DU145 xenograft tumors in NOD/SCID mice; assay type: in vivo; conditions: 20 mg/kg i.p. every day for 3 weeks
Description: FIGS. 8A-8C show the MB5 effect on the growth of DU145 tumor xenografts in NOD/SCID mice Viable DU145 cells (5×10^6) were injected to the flank of NOD/SCID mice. After tumor reached 100 mm^3, mice were injected via i.p. with DMSO or MB5 at a dose of 20 mg/Kg. Values are mean±S.E. ** p<0.01 compared with each control.
Animal protocols were approved by the Institutional Animal Care and Use Committee at the University of Toledo Health Science Campus. Tumor xenografts were established by subcutaneous injection of 5×10^6 DU145 cells into two flanks of 6-week-old female NOD/SCID mice (Charles River). When the tumors reached an average volume of 100 mm^3, mice were injected intraperitoneally with DMSO or MB5 (at doses of 20 mg/kg body weight) every day for 3 weeks.

ERKs in LLC-PK1 cells = experiment: Immunostaining assay for active ERK in LLC-PK1 cells; assay type: cell-based, pig; conditions: pretreated cells exposed to 1 nM ouabain for 60 min
Description: as §7
LLC-PK1 cells were pretreated with different concentrations of MB5 for 15 min, exposed to 1 nM ouabain for 60 min, and assayed for active ERKs. A representative set of images is shown. LLC-PK1 cells were pretreated with different concentrations of MB5 for 15 min, exposed to stimuli for either 10 or 3 min, and assayed for active ERKs. A representative set of images is shown.
The data presented in FIGS. 6C-6E show blocking ouabain-induced ERK activation by other antagonists of receptor Na/K-ATPase/Src complex. […] Both control and Tanshinone I-pretreated cells were exposed to ouabain (1 nM) for 1 hour, and processed for immuno-staining of active ERK as in FIG. 6A. A representative set of images are presented from three separate experiments.
LLC-PK1 cells grown on coverslip were serum-starved and treated with MB5 or stimuli for indicated time. […] The signals were detected by a Leica (Wetzlar, Germany) confocal microscope. […]

COc1cc(/C=C/C(=O)O)ccc1O [ferulic acid]
identification as antagonist of receptor Na/K-ATPase/Src complex (ouabain antagonist) [1]: identified; also recorded: receptor antagonists
effect on ouabain-induced ERK activation (ERK in LLC-PK1 cells): inhibitory effects

CC(C)(O)[C@@H]1CC[C@](C)([C@H]2[C@@H](O)C[C@@]3(C)[C@@H]4C[C@H](O[C@@H]5O[C@H](CO)[C@@H](O)[C@H](O)[C@H]5O)[C@H]5C(C)(C)[C@@H](O[C@@H]6OC[C@@H](O)[C@H](O)[C@H]6O)CC[C@@]56C[C@@]46CC[C@]23C)O1 [astragaloside IV]
identification as antagonist of receptor Na/K-ATPase/Src complex (ouabain antagonist) [1]: identified; also recorded: receptor antagonists
effect on ouabain-induced ERK activation (ERK in LLC-PK1 cells): inhibitory effects

CCCCCCCC/C=C\CCCCCCCC(=O)O [oleic acid]
Src activation (pY418 / total Src) (Src in LLC-PK1 cells): activated Src

C[C@@H]1O[C@@H](O[C@H]2C[C@@H](O)[C@]3(CO)[C@H]4[C@H](O)C[C@]5(C)[C@@H](C6=CC(=O)OC6)CC[C@]5(O)[C@@H]4CC[C@]3(O)C2)[C@H](O)[C@H](O)[C@H]1O [ouabain]
Src activation (pY418 / total Src) [2]: activate Src
Src activation (pY418 / total Src) [3]: could no longer activate Src
Src activation (pY418 / total Src) [4]: could no longer activate Src
Src activation (pY418 / total Src) [5]: activated Src
Src activation (pY418 / total Src) [6]: activate Src
Src activation (pY418 / total Src) [7]: abolished their effects

O=c1c2cccc(O)c2oc2c(O)c(O)ccc12 [MB5, 3,4,5-trihydroxyxanthone]
identification as antagonist of receptor Na/K-ATPase/Src complex (ouabain antagonist) [1]: positively identified as ouabain antagonists
identification as antagonist of receptor Na/K-ATPase/Src complex (ouabain antagonist) ([1]; listed as MB-5): receptor antagonists
effect on ouabain-induced Src activation (Src pY418) [8]: antagonizing effects
effect on ouabain-induced signal transduction [9]: antagonize
growth of DU145 tumor xenograft (DU145 tumor xenograft): inhibited the growth
effect on ouabain-induced activation of ERKs (ERKs in LLC-PK1 cells): blocked

COc1cc(/C=C/C(=O)CC(=O)/C=C/c2ccc(O)c(OC)c2)ccc1O [curcumin]
identification as antagonist of receptor Na/K-ATPase/Src complex (ouabain antagonist) [1]: receptor antagonists

O=C(O)[C@H](O)Cc1ccc(O)c(O)c1 [danshensu]
identification as antagonist of receptor Na/K-ATPase/Src complex (ouabain antagonist) [1]: identified
identification as antagonist of receptor Na/K-ATPase/Src complex (ouabain antagonist) ([1]; listed as Tanshensu): receptor antagonists

O=c1c2ccc(O)c(O)c2oc2c(O)c(O)ccc12 [MB7, 3,4,5,6-tetrahydroxyxanthone]
effect on ouabain-induced signal transduction [9]: antagonize

Cc1coc2c1C(=O)C(=O)c1c-2ccc2c1CCCC2(C)C [tanshinone IIA]
identification as antagonist of receptor Na/K-ATPase/Src complex (ouabain antagonist) [1]: identified
effect on ouabain-induced Src activation (Src pY418) [8]: antagonizing effects

Cc1coc2c1C(=O)C(=O)c1c-2ccc2c(C)cccc12 [tanshinone I]
identification as antagonist of receptor Na/K-ATPase/Src complex (ouabain antagonist) [1]: identified
effect on ouabain-induced Src activation (Src pY418) [8]: antagonizing effects
effect on ouabain-induced activation of ERKs (ERKs in LLC-PK1 cells): inhibition
effect on ouabain-induced ERK activation (ERK in LLC-PK1 cells): inhibitory effects
